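Method: 48-hour compound exposure of cells in 96-well plates, five concentrations, linear interpolation of endpoints. GI50 = concentration required for 50% inhibition of growth. The concentration for full growth arrest is given as TGI.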
Legend:
Experiment in all cases: NCI-60 cell line screen, 48 h
[1] = tested on: NCI-H23 lung
[2] = tested on: NCI-H460 lung
[3] = tested on: NCI-H522 lung
[4] = tested on: NCI/ADR-RES ovarian
[5] = tested on: OVCAR-3 ovarian
[6] = tested on: OVCAR-4 ovarian
[7] = tested on: OVCAR-5 ovarian
[8] = tested on: OVCAR-8 ovarian
[9] = tested on: PC-3 prostate
[10] = tested on: RPMI-8226 leukemia
[11] = tested on: RXF 393 renal
[12] = tested on: SF-268 CNS
[13] = tested on: SF-295 CNS
[14] = tested on: SF-539 CNS
[15] = tested on: SK-MEL-2 melanoma
[16] = tested on: SK-MEL-28 melanoma
[17] = tested on: SK-MEL-5 melanoma
[18] = tested on: SK-OV-3 ovarian
[19] = tested on: SN12C renal
[20] = tested on: SNB-19 CNS
[21] = tested on: SNB-75 CNS
[22] = tested on: SR leukemia
[23] = tested on: SW-620 colon
[24] = tested on: T-47D breast
[25] = tested on: TK-10 renal
[26] = tested on: U251 CNS
[27] = tested on: UACC-257 melanoma
[28] = tested on: UACC-62 melanoma
[29] = tested on: UO-31 renal

## CN=C(N)c1ccc(N=C(N)c2ccc(-c3ccc(C(N)=Nc4ccc(C(N)=NC)cc4)cc3)cc2)cc1
[1]
  GI50: > 100 µM
  TGI: > 100 µM
[2]
  GI50: 55.8 µM
  TGI: > 100 µM
[3]
  GI50: 18.4 µM
  TGI: > 100 µM
[4]
  GI50: > 100 µM
  TGI: > 100 µM
[5]
  GI50: > 100 µM
  TGI: > 100 µM
[6]
  GI50: > 100 µM
  TGI: > 100 µM
[7]
  GI50: > 100 µM
  TGI: > 100 µM
[8]
  GI50: 52.1 µM
  TGI: > 100 µM
[9]
  GI50: > 100 µM
  TGI: > 100 µM
[10]
  GI50: 46.5 µM
  TGI: > 100 µM
[11]
  GI50: 39.4 µM
  TGI: > 100 µM
[12]
  GI50: > 100 µM
  TGI: > 100 µM
[13]
  GI50: 41.1 µM
  TGI: > 100 µM
[14]
  GI50: > 100 µM
  TGI: > 100 µM
[15]
  GI50: 35.1 µM
  TGI: > 100 µM
[16]
  GI50: 41.8 µM
  TGI: > 100 µM
[17]
  GI50: 33.6 µM
  TGI: > 100 µM
[18]
  GI50: > 100 µM
  TGI: > 100 µM
[19]
  GI50: > 100 µM
  TGI: > 100 µM
[20]
  GI50: > 100 µM
  TGI: > 100 µM
[21]
  GI50: > 100 µM
  TGI: > 100 µM
[22]
  GI50: > 100 µM
  TGI: > 100 µM
[23]
  GI50: > 100 µM
  TGI: > 100 µM
[24]
  GI50: 58.2 µM
  TGI: > 100 µM
[25]
  GI50: 35.9 µM
  TGI: 97.1 µM
[26]
  GI50: 55.5 µM
  TGI: > 100 µM
[27]
  GI50: > 100 µM
  TGI: > 100 µM
[28]
  GI50: 30.5 µM
  TGI: > 100 µM
[29]
  GI50: > 100 µM
  TGI: > 100 µM

Source: PubChem BioAssay (NCI)
